Assay results from ChEMBL document CHEMBL1201862, “PubChem BioAssay data set” (2004).
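Values below derive from 48-hour exposures of cells grown in 96-well plates, with endpoints linearly interpolated between the two concentrations bracketing the appropriate inhibition level. GI50 is the concentration that inhibits growth by half.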 Calls of active or inactive are those of the source. Rule as the data show it: active = GI50 up to about 1.1 µM and inactive = higher.

Experiments:
Assay in all cases: DTP human tumour cell line panel, 48 h
SNB-78 = test system: SNB-78
ACHN = test system: ACHN
A549 = test system: A549
SF-539 = test system: SF-539
SF-268 = test system: SF-268
M19-MEL = test system: M19-MEL
SF-295 = test system: SF-295
COLO 205 = test system: COLO 205
786-0 = test system: 786-0
SR = test system: SR
SK-MEL-28 = test system: SK-MEL-28
SK-MEL-5 = test system: SK-MEL-5
DMS-114 = test system: DMS-114
XF498 = test system: XF498
M14 = test system: M14
HOP-92 = test system: HOP-92
KM12 = test system: KM12
Malme-3M = test system: Malme-3M
HOP-62 = test system: HOP-62
MOLT-4 = test system: MOLT-4
OVCAR-5 = test system: OVCAR-5
OVCAR-4 = test system: OVCAR-4
CCRF-CEM = test system: CCRF-CEM
SNB-75 = test system: SNB-75
HL-60 = test system: HL-60
SNB-19 = test system: SNB-19
HT-29 = test system: HT-29
HOP-18 = test system: HOP-18
RPMI-8226 = test system: RPMI-8226
LOX IMVI = test system: LOX IMVI
RXF 631 = test system: RXF 631
NCI-H23 = test system: NCI-H23
A498 = test system: A498
NCI-H460 = test system: NCI-H460
HCT-15 = test system: HCT-15
HCT-116 = test system: HCT-116
U-251 = test system: U-251
IGROV-1 = test system: IGROV-1
KM-20L2 = test system: KM-20L2
SW-620 = test system: SW-620
OVCAR-8 = test system: OVCAR-8
K562 = test system: K562
UO-31 = test system: UO-31
DLD-1 = test system: DLD-1
SK-MEL-2 = test system: SK-MEL-2
HCC 2998 = test system: HCC 2998
LXFL 529 = test system: LXFL 529
CAKI-1 = test system: CAKI-1
UACC-257 = test system: UACC-257
SK-OV-3 = test system: SK-OV-3
RXF 393 = test system: RXF 393
UACC-62 = test system: UACC-62
EKVX = test system: EKVX
NCI-H522 = test system: NCI-H522
SN12C = test system: SN12C

O=C(NOC(=O)c1ccc([N+](=O)[O-])cc1)c1ccc(Cl)cc1
GI50 (SNB-78): 16.6 µM (inactive) | GI50 (ACHN): 37.6 µM (inactive) | GI50 (A549): > 100 µM (inactive) | GI50 (SF-539): > 100 µM (inactive) | GI50 (SF-268): > 100 µM (inactive) | GI50 (M19-MEL): > 100 µM (inactive) | GI50 (SF-295): > 100 µM (inactive) | GI50 (COLO 205): > 100 µM (inactive) | GI50 (786-0): 54.6 µM (inactive) | GI50 (SR): > 100 µM (inactive) | GI50 (SK-MEL-28): > 100 µM (inactive) | GI50 (SK-MEL-5): 65.2 µM (inactive) | GI50 (DMS-114): 44.5 µM (inactive) | GI50 (XF498): 85.9 µM (inactive) | GI50 (M14): > 100 µM (inactive) | GI50 (HOP-92): 27.4 µM (inactive) | GI50 (KM12): > 100 µM (inactive) | GI50 (Malme-3M): > 100 µM (inactive) | GI50 (HOP-62): > 100 µM (inactive) | GI50 (MOLT-4): 20.4 µM (inactive) | GI50 (OVCAR-5): > 100 µM (inactive) | GI50 (OVCAR-4): 88.9 µM (inactive) | GI50 (CCRF-CEM): 28.2 µM (inactive) | GI50 (SNB-75): 15 µM (inactive) | GI50 (HL-60): 15.8 µM (inactive) | GI50 (SNB-19): > 100 µM (inactive) | GI50 (HT-29): > 100 µM (inactive) | GI50 (HOP-18): 2.9 µM (inactive) | GI50 (RPMI-8226): 65.2 µM (inactive) | GI50 (LOX IMVI): 6.87 µM (inactive) | GI50 (RXF 631): > 100 µM (inactive) | GI50 (NCI-H23): > 100 µM (inactive) | GI50 (A498): > 100 µM (inactive) | GI50 (NCI-H460): > 100 µM (inactive) | GI50 (HCT-15): 35.7 µM | GI50 (HCT-116): > 100 µM (inactive) | GI50 (U-251): 76.7 µM (inactive) | GI50 (IGROV-1): 21.4 µM (inactive) | GI50 (KM-20L2): 97.1 µM (inactive) | GI50 (SW-620): 38 µM (inactive) | GI50 (OVCAR-8): 98.6 µM (inactive) | GI50 (K562): 21.6 µM (inactive) | GI50 (UO-31): 23.8 µM (inactive) | GI50 (DLD-1): 38.7 µM (inactive) | GI50 (SK-MEL-2): > 100 µM (inactive) | GI50 (HCC 2998): > 100 µM (inactive) | GI50 (LXFL 529): 17.9 µM (inactive) | GI50 (CAKI-1): 39.6 µM (inactive) | GI50 (UACC-257): > 100 µM (inactive) | GI50 (SK-OV-3): > 100 µM (inactive) | GI50 (RXF 393): 87.1 µM (inactive) | GI50 (UACC-62): 36.2 µM (inactive) | GI50 (EKVX): > 100 µM (inactive) | GI50 (NCI-H522): 27 µM (inactive) | GI50 (SN12C): 62.4 µM (inactive)
